Data published in publication PMC6934184, “Selective DNA-PKcs inhibition extends the therapeutic index of localized radiotherapy and chemotherapy” (The Journal of Clinical Investigation, 2019).

Target: T1, BRSK1 (SAD1) (Homo sapiens, UniProt Q8TDC3)
T1 construct: purchased Thermo Fisher Scientific (Life Technologies) SelectScreen
Test: SelectScreen Z'LYTE
Assay type: biochemical
Outline: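 NU5455 was profiled across the SelectScreen Broad panel of kinase activity and binding assays. Z'LYTE reactions such as CSF1R ran at apparent Km ATP, while the Adapta CAMK1 assay used ATP listed as 10. Values are given as percent.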

T1 sequence (Q8TDC3 whole entry): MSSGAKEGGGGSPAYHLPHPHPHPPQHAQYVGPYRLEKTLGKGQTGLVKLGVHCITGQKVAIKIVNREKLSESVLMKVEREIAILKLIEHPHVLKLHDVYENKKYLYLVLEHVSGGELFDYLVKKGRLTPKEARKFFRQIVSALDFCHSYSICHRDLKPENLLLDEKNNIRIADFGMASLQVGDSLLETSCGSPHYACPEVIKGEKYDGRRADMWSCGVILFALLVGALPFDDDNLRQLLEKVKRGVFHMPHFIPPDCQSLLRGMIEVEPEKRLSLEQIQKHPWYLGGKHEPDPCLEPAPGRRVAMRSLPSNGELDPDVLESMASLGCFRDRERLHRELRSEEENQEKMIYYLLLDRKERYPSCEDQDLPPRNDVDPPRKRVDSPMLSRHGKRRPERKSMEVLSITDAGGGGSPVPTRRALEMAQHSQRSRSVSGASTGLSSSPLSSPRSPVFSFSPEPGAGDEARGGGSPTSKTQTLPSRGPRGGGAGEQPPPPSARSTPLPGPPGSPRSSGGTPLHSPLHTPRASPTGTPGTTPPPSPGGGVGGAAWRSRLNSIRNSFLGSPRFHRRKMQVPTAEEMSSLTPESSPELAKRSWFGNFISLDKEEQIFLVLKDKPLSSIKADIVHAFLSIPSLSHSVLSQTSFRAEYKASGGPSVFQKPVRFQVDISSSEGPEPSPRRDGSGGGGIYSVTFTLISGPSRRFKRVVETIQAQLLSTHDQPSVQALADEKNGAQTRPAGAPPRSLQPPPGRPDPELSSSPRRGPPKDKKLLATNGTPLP

CN(C(=O)CN1CCOCC1)c1ccc2sc3c(-c4cccc5c(=O)cc(N6CC7CCC(C6)O7)oc45)cccc3c2c1 [NU5455]
inhibition at 1 µM: -1.1%
